According to ChEMBL document CHEMBL1158459, “Discovery of a peroxisome proliferator activated receptor gamma (PPARgamma) modulator with balanced PPARalpha activity for the treatment of type 2 diabetes and dyslipidemia” (J Med Chem, 2009):
Calls of active or inactive are those of the source. The rule behind the calls is not given here.

Experiments:
Mus musculus [1] = test: Antidiabetic activity in C57BLKS/J-m+/+Leprdb db/db mouse assessed as reduction in plasma triglyceride levels at 1 mg/kg, po once daily for 11 days relative to control; format: functional; parameters: scale not given: the % may be the effect or the level left
Mus musculus [2] = test: Antidiabetic activity in ob/ob mouse assessed as reduction in plasma triglyceride levels at 10 mg/kg, po once daily for 5 days relative to control; format: functional; parameters: scale not given: the % may be the effect or the level left
Mus musculus [3] = test: Antidiabetic activity in ob/ob mouse assessed as reduction in plasma glucose levels at 3 mg/kg, po once daily for 5 days relative to control; format: functional; parameters: scale not given: the % may be the effect or the level left
Mus musculus [4] = test: Antidiabetic activity in ob/ob mouse assessed as reduction in plasma glucose levels at 10 mg/kg, po once daily for 5 days relative to control; format: functional; parameters: scale not given: the % may be the effect or the level left
[5] = Cmax in C57BLKS/J-m+/+Leprdb db/db mouse at 1 mg/kg, po once daily for 11 days; format: ADME, organism-based; parameters: dose 1 mg/kg, route oral; conditions: in vivo
[6] = Cmax in C57BLKS/J-m+/+Leprdb db/db mouse at 3 mg/kg, po once daily for 11 days; format: ADME, organism-based; parameters: dose 3 mg/kg, route oral; conditions: in vivo
[7] = Cmax in C57BLKS/J-m+/+Leprdb db/db mouse at 10 mg/kg, po once daily for 11 days; format: ADME, organism-based; parameters: dose 10 mg/kg, route oral; conditions: in vivo
[8] = AUC in C57BLKS/J-m+/+Leprdb db/db mouse at 3 mg/kg, po once daily for 11 days; format: ADME, organism-based; parameters: dose 3 mg/kg, route oral; conditions: plasma
Mus musculus [9] = test: Antidiabetic activity in high fat diet-fed streptozotocin-treated mouse assessed as reduction in plasma glucose levels at 5 mg/kg, po once daily for 12 days relative to control; format: functional; parameters: scale not given: the % may be the effect or the level left
[10] = AUC in high fat diet-fed streptozotocin-treated mouse at 5 mg/kg, po once daily for 12 days; format: ADME, organism-based; parameters: dose 5 mg/kg, route oral; conditions: plasma
Rattus norvegicus [11] = test: Antidiabetic activity in Zucker fa/fa rat assessed as decrease in free fatty acid levels at 3 mg/kg, po once daily for 7 days; format: functional, organism-based; parameters: dose 3 mg/kg
Rattus norvegicus [12] = test: Antidiabetic activity in Zucker fa/fa rat assessed as decrease in triglyceride levels at 0.03 mg/kg, po once daily for 7 days; format: functional, organism-based; parameters: dose 0.03 mg/kg
Rattus norvegicus [13] = test: Antidiabetic activity in Zucker fa/fa rat assessed as decrease in triglyceride levels at 0.3 mg/kg, po once daily for 7 days; format: functional, organism-based; parameters: dose 0.3 mg/kg
Rattus norvegicus [14] = test: Antidiabetic activity in Zucker fa/fa rat assessed as decrease in triglyceride levels at 3 mg/kg, po once daily for 7 days; format: functional, organism-based; parameters: dose 3 mg/kg
Rattus norvegicus [15] = test: Antidiabetic activity in Zucker fa/fa rat assessed as decrease in triglyceride levels at 1 mg/kg, po once daily for 7 days; format: functional, organism-based; parameters: dose 1 mg/kg
Rattus norvegicus [16] = test: Toxicity in Zucker fa/fa rat assessed as increase in plasma volume at 10 mg/kg, po treated once daily for 7 days; conditions: in vivo, 168 h
Syrian golden hamster [17] = test: Antidiabetic activity in Syrian golden hamster assessed as reduction in cholesterol level at 0.3 mg/kg, po once daily for 9 days relative to control; format: functional, Mesocricetus auratus; parameters: scale not given: the % may be the effect or the level left
Syrian golden hamster [18] = test: Antidiabetic activity in Syrian golden hamster assessed as reduction in cholesterol level at 3 mg/kg, po once daily for 9 days relative to control; format: functional, Mesocricetus auratus; parameters: scale not given: the % may be the effect or the level left
[19] = Cmax in Syrian golden hamster at 1 mg/kg, po once daily for 9 days; format: ADME, organism-based, Mesocricetus auratus; parameters: dose 1 mg/kg, route oral; conditions: in vivo
[20] = AUC in Syrian golden hamster at 1 mg/kg, po once daily for 9 days; format: ADME, organism-based, Mesocricetus auratus; parameters: dose 1 mg/kg, route oral; conditions: plasma
Canis familiaris = test: Antidiabetic activity in Beagle dog assessed as reduction in total cholesterol level at 1 mg/kg, po once daily for 14 days relative to control; format: functional, Canis lupus familiaris; parameters: scale not given: the % may be the effect or the level left
[21] = Cmax in Beagle dog at 1 mg/kg, po once daily for 14 days; format: ADME, organism-based, Canis lupus familiaris; parameters: dose 1 mg/kg, route oral; conditions: in vivo
[22] = Cmax in Beagle dog at 3 mg/kg, po once daily for 14 days; format: ADME, organism-based, Canis lupus familiaris; parameters: dose 3 mg/kg, route oral; conditions: in vivo
Rattus norvegicus [23] = test: Toxicity in Sprague-Dawley rat assessed as increase in heart weight at 60 mg/kg, po once daily for 14 days; format: organism-based; parameters: dose 60 mg/kg, route oral; conditions: in vivo, 336 h
Rattus norvegicus [24] = test: Toxicity in Sprague-Dawley rat assessed as increase albumin/globulin levels at 60 mg/kg, po once daily for 14 days; format: organism-based; parameters: dose 60 mg/kg, route oral; conditions: in vivo, 336 h
Rattus norvegicus [25] = test: Toxicity in Sprague-Dawley rat assessed as increase bilirubin levels at 60 mg/kg, po once daily for 14 days; format: organism-based; parameters: dose 60 mg/kg, route oral; conditions: in vivo, 336 h
[26] = molecular target: T1, Peroxisome proliferator-activated receptor alpha (Homo sapiens, UniProt Q07869); test: Inhibition of human PPARalpha receptor by scintillation proximity assay
T1 sequence (Q07869 whole entry): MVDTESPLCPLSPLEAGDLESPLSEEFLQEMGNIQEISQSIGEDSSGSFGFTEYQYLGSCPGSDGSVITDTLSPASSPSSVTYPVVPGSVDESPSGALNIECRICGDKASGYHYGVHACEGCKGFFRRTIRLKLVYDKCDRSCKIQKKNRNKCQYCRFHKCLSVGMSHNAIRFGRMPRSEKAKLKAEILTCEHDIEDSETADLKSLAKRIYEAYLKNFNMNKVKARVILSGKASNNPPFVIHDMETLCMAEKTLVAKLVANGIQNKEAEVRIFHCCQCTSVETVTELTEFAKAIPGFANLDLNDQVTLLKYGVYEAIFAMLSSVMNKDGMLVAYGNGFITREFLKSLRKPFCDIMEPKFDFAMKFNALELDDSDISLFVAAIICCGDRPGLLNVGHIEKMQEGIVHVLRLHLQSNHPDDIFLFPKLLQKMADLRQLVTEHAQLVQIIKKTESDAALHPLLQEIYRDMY

Mus musculus [27] = test: Antidiabetic activity in C57BLKS/J-m+/+Leprdb db/db mouse assessed as reduction in plasma triglyceride levels at 10 mg/kg, po once daily for 11 days relative to control; format: functional; parameters: scale not given: the % may be the effect or the level left
[28] = Agonist activity at hamster PPARalpha receptor; format: functional, Cricetinae
Cytochrome P450 2C9 = Cytochrome P450 2C9 (Homo sapiens, UniProt P11712); test: Inhibition of CYP2C9; format: ADME
Cytochrome P450 2C9, sequence (P11712 whole entry): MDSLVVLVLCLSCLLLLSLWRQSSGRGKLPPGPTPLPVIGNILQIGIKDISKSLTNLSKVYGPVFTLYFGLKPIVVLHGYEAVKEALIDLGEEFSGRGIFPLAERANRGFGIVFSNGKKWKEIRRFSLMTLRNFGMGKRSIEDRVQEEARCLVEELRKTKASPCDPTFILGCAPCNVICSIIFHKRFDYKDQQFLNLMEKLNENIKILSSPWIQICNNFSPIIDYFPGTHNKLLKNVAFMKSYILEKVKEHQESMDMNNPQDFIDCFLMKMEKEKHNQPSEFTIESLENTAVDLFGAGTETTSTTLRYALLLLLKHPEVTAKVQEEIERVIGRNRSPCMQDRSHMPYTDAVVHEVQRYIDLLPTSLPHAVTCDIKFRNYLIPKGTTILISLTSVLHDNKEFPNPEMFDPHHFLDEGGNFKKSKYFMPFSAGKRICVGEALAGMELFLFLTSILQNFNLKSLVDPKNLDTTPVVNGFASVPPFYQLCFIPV

[29] = molecular target: Oxysterols receptor LXR-beta (Homo sapiens) (UniProt P55055); test: Binding affinity to LXRbeta up to 10 uM
Oxysterols receptor LXR-beta (Homo sapiens), sequence (P55055 whole entry): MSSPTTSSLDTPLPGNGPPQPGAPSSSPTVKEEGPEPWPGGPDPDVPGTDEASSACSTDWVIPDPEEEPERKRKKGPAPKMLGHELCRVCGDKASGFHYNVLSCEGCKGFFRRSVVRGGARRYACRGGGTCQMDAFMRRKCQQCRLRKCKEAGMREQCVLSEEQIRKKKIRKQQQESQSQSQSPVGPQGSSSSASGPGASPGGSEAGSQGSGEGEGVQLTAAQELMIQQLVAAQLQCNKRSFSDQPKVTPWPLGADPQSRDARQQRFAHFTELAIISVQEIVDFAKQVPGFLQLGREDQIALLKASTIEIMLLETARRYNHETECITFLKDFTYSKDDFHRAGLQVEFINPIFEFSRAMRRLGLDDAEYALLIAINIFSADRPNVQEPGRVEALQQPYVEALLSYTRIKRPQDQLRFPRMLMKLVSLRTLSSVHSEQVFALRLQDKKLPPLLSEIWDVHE

[30] = molecular target: Estrogen receptor (Homo sapiens) (UniProt P03372); test: Binding affinity to ERalpha up to 10 uM
Estrogen receptor (Homo sapiens), sequence (P03372 whole entry): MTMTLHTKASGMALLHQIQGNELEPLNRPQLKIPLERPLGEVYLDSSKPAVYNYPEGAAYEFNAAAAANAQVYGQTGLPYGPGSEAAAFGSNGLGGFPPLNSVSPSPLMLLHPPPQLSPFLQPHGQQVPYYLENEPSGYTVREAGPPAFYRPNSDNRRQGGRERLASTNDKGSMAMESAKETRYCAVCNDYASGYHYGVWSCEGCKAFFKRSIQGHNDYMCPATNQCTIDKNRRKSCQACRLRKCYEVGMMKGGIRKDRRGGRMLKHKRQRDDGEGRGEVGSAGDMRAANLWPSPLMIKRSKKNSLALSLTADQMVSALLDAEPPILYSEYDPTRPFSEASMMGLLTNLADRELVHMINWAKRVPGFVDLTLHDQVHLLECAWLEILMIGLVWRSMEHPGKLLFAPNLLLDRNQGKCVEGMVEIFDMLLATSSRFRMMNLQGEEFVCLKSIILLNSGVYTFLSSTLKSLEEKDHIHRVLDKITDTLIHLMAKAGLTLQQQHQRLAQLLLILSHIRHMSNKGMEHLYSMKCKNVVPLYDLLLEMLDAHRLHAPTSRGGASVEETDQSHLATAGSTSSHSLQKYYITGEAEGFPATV

[31] = molecular target: Estrogen receptor beta (Homo sapiens) (UniProt Q92731); test: Binding affinity to ERbeta up to 10 uM
Estrogen receptor beta (Homo sapiens), sequence (Q92731 whole entry): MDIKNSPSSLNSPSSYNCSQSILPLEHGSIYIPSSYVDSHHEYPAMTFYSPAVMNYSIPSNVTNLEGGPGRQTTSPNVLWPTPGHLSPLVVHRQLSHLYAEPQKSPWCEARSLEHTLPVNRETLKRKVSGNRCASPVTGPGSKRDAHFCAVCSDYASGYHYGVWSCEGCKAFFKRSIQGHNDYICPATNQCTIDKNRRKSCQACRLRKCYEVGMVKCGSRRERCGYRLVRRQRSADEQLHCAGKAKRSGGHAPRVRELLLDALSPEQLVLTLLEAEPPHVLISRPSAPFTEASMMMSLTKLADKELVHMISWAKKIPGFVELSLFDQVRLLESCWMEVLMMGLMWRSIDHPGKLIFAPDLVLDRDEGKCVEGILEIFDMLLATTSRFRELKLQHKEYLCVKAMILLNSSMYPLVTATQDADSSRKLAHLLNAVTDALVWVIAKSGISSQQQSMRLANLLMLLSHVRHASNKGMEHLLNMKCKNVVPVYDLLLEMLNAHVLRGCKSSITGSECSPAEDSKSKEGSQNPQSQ

[32] = molecular target: Estrogen receptor (Homo sapiens) (UniProt P03372); test: Activity at ERalpha receptor up to 10 uM by transactivation assay

`CC[C@@H](Oc1cccc(Cn2c(C)c(C(=O)c3ccc(Cl)cc3)c3ccc(OC(F)(F)F)cc32)c1)C(=O)O` gave an Activity (Mus musculus [1]) of 75%, an Activity (Mus musculus [2]) of 50% and an Activity (Mus musculus [3]) of 21%. It also gave an Activity (Mus musculus [4]) of 34%, a Cmax [5] of 1.5 µM and a Cmax [6] of 5.4 µM. It also gave a Cmax [7] of 9.6 µM, an AUC at 264 h [8] of 6.4 µM·h and an Activity (Mus musculus [9]) of 75%. The AUC at 288 h [10] was 2.7 µM·h, the Activity (Rattus norvegicus [11]) was “Active” and the Activity (Rattus norvegicus [12]) was “Active”. For the same molecule, the Activity (Rattus norvegicus [13]) was “Active”, the Activity (Rattus norvegicus [14]) was “Active” and the Activity (Rattus norvegicus [15]) was “Active”. For the same molecule, the Activity (Rattus norvegicus [16]) was “Toxic”, the Activity (Syrian golden hamster [17]) was 21.9% and the Activity (Syrian golden hamster [18]) was 51.4%. It also gave a Cmax [19] of 0.07 µM, an AUC at 216 h [20] of 0.55 µM·h and an Activity (Canis familiaris) of 12.8%. The Cmax [21] was 1.03 µM, the Cmax [22] was 18.6 µM and the Activity (Rattus norvegicus [23]) was 1%. It also gave an Activity (Rattus norvegicus [24]) of 45%, an Activity (Rattus norvegicus [25]) of 48% and an IC50 [26] of 2.62 µM. It also gave an Activity (Mus musculus [27]) of 84%, an EC50 [28] of 0.00046 µM and an IC50 (Cytochrome P450 2C9) of 10 µM. For the same molecule, the Activity [29] was “inactive”, the Activity [30] was “inactive” and the Activity [31] was “inactive”. For the same molecule, the Activity [32] was “inactive”.
